From patent US7511065B2, “Mixed lineage kinase modulators” (Eli Lilly and Company, priority 2002, dated 2009)
Counter-ions that a name gives are not always drawn.

Target: T1, MLK-7 (Homo sapiens, UniProt Q9NYL2)
T1 construct: GST; His tag; made in house; host or cells: Sf9 insect cells (baculovirus, pVL1392)
Test: In vitro assay of purified MLK-7 kinase activity (33P transfer from ATP to myelin basic protein)
Type: biochemical
Details: recombinant GST-tagged MLK-7 at 1 nm, 30 uM ATP, 5 uM MBP substrate, 2 hours room temperature; read-out: MLK7 IC50
Outline: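 GST/His-tagged MLK-7 from Sf9 (baculovirus), 1 nM, with 5 uM MBP, 30 uM ATP plus 33P, 5 mM MgCl2, 2 mM DTT, 4% DMSO in 44 mM HEPES pH 7.4; 2 h at room temperature, stopped with phosphoric acid. Filter-bound 33P counted; IC50 for reduced phosphate transfer, Ki via Cheng-Prusoff.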

T1 sequence (Q9NYL2 1-455 isoform Q9NYL2-2): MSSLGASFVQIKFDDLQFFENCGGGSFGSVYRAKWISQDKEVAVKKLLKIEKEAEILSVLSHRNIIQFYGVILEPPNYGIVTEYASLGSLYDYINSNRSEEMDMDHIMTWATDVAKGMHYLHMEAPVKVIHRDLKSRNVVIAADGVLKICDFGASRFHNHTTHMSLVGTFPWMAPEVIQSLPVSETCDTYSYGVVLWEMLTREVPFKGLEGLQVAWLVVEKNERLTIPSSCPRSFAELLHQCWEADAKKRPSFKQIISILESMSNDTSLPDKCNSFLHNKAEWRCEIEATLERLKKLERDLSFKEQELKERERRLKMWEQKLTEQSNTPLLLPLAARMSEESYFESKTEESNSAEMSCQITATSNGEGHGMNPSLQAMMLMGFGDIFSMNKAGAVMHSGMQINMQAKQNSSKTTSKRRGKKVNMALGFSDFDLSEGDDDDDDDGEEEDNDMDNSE

`O=C(c1ccc(-c2ccc3c(-c4c(-c5ccccn5)nn5c4CCC5)ccnc3c2)cc1)N1CCSCC1` [Example 123, {4-[4-(2-Pyridin-2-yl-5,6-dihydro-4H-pyrrolo[1,2-b]pyrazol-3-yl)-quinolin-7-yl]-phenyl}-thiomorpholin-4-yl-methanone] and `O=C(c1ccc(-c2ccc3c(-c4c(-c5ccccn5)nn5c4CCC5)ccnc3c2)cc1)N1CCOCC1` [Example 124, Morpholin-4-yl-{4-[4-(2-pyridin-2-yl-5,6-dihydro-4H-pyrrolo[1,2-b]pyrazol-3-yl)-quinolin-7-yl]-phenyl}-methanone] cannot be ordered by IC50: no more than 0.1 µM for the first, no more than 0.1 µM for the second.

`NC(=O)CNC(=O)c1ccc(-c2ccc3c(-c4c(-c5ccccn5)nn5c4CCC5)ccnc3c2)cc1` [Example 125, N-Carbamoylmethyl-4-[4-(2-pyridin-2-yl-5,6-dihydro-4H-pyrrolo[1,2-b]pyrazol-3-yl)-quinolin-7-yl]-benzamide] and `O=C(O)CCNC(=O)c1ccc(-c2ccc3c(-c4c(-c5ccccn5)nn5c4CCC5)ccnc3c2)cc1` [Example 147, 3-{4-[4-(2-Pyridin-2-yl-5,6-dihydro-4H-pyrrolo[1,2-b]pyrazol-3-yl)-quinolin-7-yl]-benzoylamino}-propionic Acid Trifluoroacetic Acid Salt] cannot be ordered by IC50: no more than 0.1 µM for the first, no more than 0.1 µM for the second.

`CC(C)NCCNC(=O)c1ccc(-c2ccc3c(-c4c(-c5ccccn5)nn5c4CCC5)ccnc3c2)cc1` [Example 126, N-(2-Isopropylamino-ethyl)-4-[4-(2-pyridin-2-yl-5,6-dihydro-4H-pyrrolo[1,2-b]pyrazol-3-yl)-quinolin-7-yl]-benzamide] and `CS(=O)(=O)CCNC(=O)c1ccc(-c2ccc3c(-c4c(-c5ccccn5)nn5c4CCC5)ccnc3c2)cc1` [Example 139, N-(2-Methanesulfonyl-ethyl)-4-[4-(2-pyridin-2-yl-5,6-dihydro-4H-pyrrolo[1,2-b]pyrazol-3-yl)-quinolin-7-yl]-benzamide] cannot be ordered by IC50: no more than 0.1 µM for the first, no more than 0.1 µM for the second.

`CCOC(=O)CCNC(=O)c1ccc(-c2ccc3c(-c4c(-c5ccccn5)nn5c4CCC5)ccnc3c2)cc1` [Example 128, 3-{4-[4-(2-Pyridin-2-yl-5,6-dihydro-4H-pyrrolo[1,2-b]pyrazol-3-yl)-quinolin-7-yl]-benzoylamino}-propionic Acid Ethyl Ester] and `CC(C)(C)OC(=O)CCNC(=O)c1ccc(-c2ccc3c(-c4c(-c5ccccn5)nn5c4CCC5)ccnc3c2)cc1` [Example 137, 3-{4-[4-(2-Pyridin-2-yl-5,6-dihydro-4H-pyrrolo[1,2-b]pyrazol-3-yl)-quinolin-7-yl]-benzoylamino}-propionic Acid tert-Butyl Ester] cannot be ordered by IC50: no more than 0.1 µM for the first, no more than 0.1 µM for the second.

`CC(C)(C)OC(=O)N1CCCC(NC(=O)c2ccc(-c3ccc4c(-c5c(-c6ccccn6)nn6c5CCC6)ccnc4c3)cc2)C1` (stereo not drawn) [Example 130, 3-{4-[4-(2-Pyridin-2-yl-5,6-dihydro-4H-pyrrolo[1,2-b]pyrazol-3-yl)-quinolin-7-yl]-benzoylamino}-piperidine-1-carboxylic Acid tert-Butyl Ester] and `CSC[C@@H](NC(=O)c1ccc(-c2ccc3c(-c4c(-c5ccccn5)nn5c4CCC5)ccnc3c2)cc1)C(=O)OC(C)(C)C` [Example 134, 3-Methylsulfanyl-2(S)-{4-[4-(2-pyridin-2-yl-5,6-dihydro-4H-pyrrolo[1,2-b]pyrazol-3-yl)-quinolin-7-yl]-benzoylamino}-propionic Acid tert-Butyl Ester] cannot be ordered by IC50: no more than 0.1 µM for the first, no more than 1 µM for the second.

`CC(C)(C)OC(=O)NCCCC[C@H](NC(=O)c1ccc(-c2ccc3c(-c4c(-c5ccccn5)nn5c4CCC5)ccnc3c2)cc1)C(=O)OC(C)(C)C` [Example 131, 6-tert-Butoxycarbonylamino-2(S)-{4-[4-(2-pyridin-2-yl-5,6-dihydro-4H-pyrrolo[1,2-b]pyrazol-3-yl)-quinolin-7-yl]-benzoylamino}-hexanoic acid tert-butyl ester] and `CC(C)(C)OC(=O)CC[C@H](NC(=O)c1ccc(-c2ccc3c(-c4c(-c5ccccn5)nn5c4CCC5)ccnc3c2)cc1)C(=O)OC(C)(C)C` [Example 135, 2(S)-{4-[4-(2-Pyridin-2-yl-5,6-dihydro-4H-pyrrolo[1,2-b]pyrazol-3-yl)-quinolin-7-yl]-benzoylamino}-pentanedioic Acid Di-tert-Butyl Ester] cannot be ordered by IC50: no more than 1 µM for the first, no more than 1 µM for the second.

`O=C(NCCN1CCOCC1)c1ccc(-c2ccc3c(-c4c(-c5ccccn5)nn5c4CCC5)ccnc3c2)cc1` [Example 132, N-(2-Morpholin-4-yl-ethyl)-4-[4-(2-pyridin-2-yl-5,6-dihydro-4H-pyrrolo[1,2-b]pyrazol-3-yl)-quinolin-7-yl]-benzamide] and `CNC(=O)c1ccc(-c2ccc3c(-c4c(-c5ccccn5)nn5c4CCC5)ccnc3c2)cc1` [Example 138, N-Methyl-4-[4-(2-pyridin-2-yl-5,6-dihydro-4H-pyrrolo[1,2-b]pyrazol-3-yl)-quinolin-7-yl]-benzamide] cannot be ordered by IC50: no more than 0.1 µM for the first, no more than 0.1 µM for the second.

`O=C(c1ccc(-c2ccc3c(-c4c(-c5ccccn5)nn5c4CCC5)ccnc3c2)cc1)N1CCS(=O)(=O)CC1` [Example 133, (1,1-Dioxo-1λ^6-thiomorpholin-4-yl)-{4-[4-(2-pyridin-2-yl-5,6-dihydro-4H-pyrrolo[1,2-b]pyrazol-3-yl)-quinolin-7-yl]-phenyl}-methanone] and `NC(=O)c1ccc(-c2ccc3c(-c4c(-c5ccccn5)nn5c4CCC5)ccnc3c2)cc1` [Example 141, 4-[4-(2-Pyridin-2-yl-5,6-dihydro-4H-pyrrolo[1,2-b]pyrazol-3-yl)-quinolin-7-yl]-benzamide] cannot be ordered by IC50: no more than 0.1 µM for the first, no more than 0.1 µM for the second.

`CN(C)C(=O)c1ccc(-c2ccc3c(-c4c(-c5ccccn5)nn5c4CCC5)ccnc3c2)cc1` [Example 136, N,N-Dimethyl-4-[4-(2-pyridin-2-yl-5,6-dihydro-4H-pyrrolo[1,2-b]pyrazol-3-yl)-quinolin-7-yl]-benzamide] and `CN(C)/C=N/C(=O)c1ccc(-c2ccc3c(-c4c(-c5ccccn5)nn5c4CCC5)ccnc3c2)cc1` [Example 140, N-Dimethylaminomethylene-4-[4-(2-pyridin-2-yl-5,6-dihydro-4H-pyrrolo[1,2-b]pyrazol-3-yl)-quinolin-7-yl]-benzamide] cannot be ordered by IC50: no more than 0.1 µM for the first, no more than 0.1 µM for the second.

`NCCCC[C@H](NC(=O)c1ccc(-c2ccc3c(-c4c(-c5ccccn5)nn5c4CCC5)ccnc3c2)cc1)C(=O)O` [Example 143, 6-Amino-2(S)-{4-[4-(2-pyridin-2-yl-5,6-dihydro-4H-pyrrolo[1,2-b]pyrazol-3-yl)-quinolin-7-yl]-benzoylamino}-hexanoic acid, Ditrifluoroacetic Acid Salt] and `CSC[C@@H](NC(=O)c1ccc(-c2ccc3c(-c4c(-c5ccccn5)nn5c4CCC5)ccnc3c2)cc1)C(=O)O` [Example 145, 3-Methylsulfanyl-2(S)-{4-[4-(2-pyridin-2-yl-5,6-dihydro-4H-pyrrolo[1,2-b]pyrazol-3-yl)-quinolin-7-yl]-benzoylamino}-propionic Acid Trifluoroacetic Acid Salt] cannot be ordered by IC50: no more than 0.1 µM for the first, no more than 0.1 µM for the second.

Compound `O=C(O)CC[C@H](NC(=O)c1ccc(-c2ccc3c(-c4c(-c5ccccn5)nn5c4CCC5)ccnc3c2)cc1)C(=O)O` [Example 146, 2(S)-{4-[4-(2-Pyridin-2-yl-5,6-dihydro-4H-pyrrolo[1,2-b]pyrazol-3-yl)-quinolin-7-yl]-benzoylamino}-pentanedioic Acid Trifluoroacetic Acid Salt] has an IC50 of no more than 0.1 µM.
